Assay results from US20110152313A1 (MACQUARIE UNIVERSITY, priority 2008, published 2011).

Columns and labels:
Assay in all cases: kinase binding screen (kinase-tagged T7 phage, qPCR), % Ctrl
[1] = molecular target: T1, ULK3 (Homo sapiens, UniProt Q6PHR2)
T1 sequence (Q6PHR2 1-472): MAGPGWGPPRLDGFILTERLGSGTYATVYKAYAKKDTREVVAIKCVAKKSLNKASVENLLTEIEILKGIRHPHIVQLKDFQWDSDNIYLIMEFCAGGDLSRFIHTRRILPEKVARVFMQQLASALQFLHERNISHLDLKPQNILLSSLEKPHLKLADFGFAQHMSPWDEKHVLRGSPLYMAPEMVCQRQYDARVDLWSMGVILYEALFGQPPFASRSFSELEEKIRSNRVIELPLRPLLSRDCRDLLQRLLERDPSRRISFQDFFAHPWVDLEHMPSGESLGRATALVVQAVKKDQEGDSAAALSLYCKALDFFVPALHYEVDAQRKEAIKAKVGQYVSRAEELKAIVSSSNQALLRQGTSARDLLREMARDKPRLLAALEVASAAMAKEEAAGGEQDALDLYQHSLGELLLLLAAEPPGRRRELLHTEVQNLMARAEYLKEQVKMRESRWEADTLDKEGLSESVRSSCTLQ
In short: (§1)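 Competition binding: kinase-tagged T7 phage (grown in BL21-derived E. coli, lysed at 32° C) incubated with immobilized ligand on biotin-blocked beads plus test compound; bound kinase in eluates quantified by qPCR. Compounds tested at a single set concentration, added from 40× DMSO stocks.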

[2] = molecular target: T2, DRAK1 (Homo sapiens, UniProt Q9UEE5)
T2 sequence (Q9UEE5 1-414): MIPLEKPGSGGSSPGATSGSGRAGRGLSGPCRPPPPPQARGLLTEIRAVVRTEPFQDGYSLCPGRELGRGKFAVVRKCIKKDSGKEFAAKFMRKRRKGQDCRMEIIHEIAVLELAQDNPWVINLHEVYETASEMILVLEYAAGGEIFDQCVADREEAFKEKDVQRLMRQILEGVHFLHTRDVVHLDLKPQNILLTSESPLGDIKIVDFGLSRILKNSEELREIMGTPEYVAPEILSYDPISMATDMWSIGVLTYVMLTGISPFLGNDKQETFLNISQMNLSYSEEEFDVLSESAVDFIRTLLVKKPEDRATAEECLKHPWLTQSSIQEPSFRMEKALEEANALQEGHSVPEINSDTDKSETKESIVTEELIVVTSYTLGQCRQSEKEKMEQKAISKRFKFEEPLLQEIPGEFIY
In short: as §1

[3] = molecular target: T3, TBK1 (Homo sapiens, UniProt Q9UHD2)
T3 sequence (Q9UHD2 1-729): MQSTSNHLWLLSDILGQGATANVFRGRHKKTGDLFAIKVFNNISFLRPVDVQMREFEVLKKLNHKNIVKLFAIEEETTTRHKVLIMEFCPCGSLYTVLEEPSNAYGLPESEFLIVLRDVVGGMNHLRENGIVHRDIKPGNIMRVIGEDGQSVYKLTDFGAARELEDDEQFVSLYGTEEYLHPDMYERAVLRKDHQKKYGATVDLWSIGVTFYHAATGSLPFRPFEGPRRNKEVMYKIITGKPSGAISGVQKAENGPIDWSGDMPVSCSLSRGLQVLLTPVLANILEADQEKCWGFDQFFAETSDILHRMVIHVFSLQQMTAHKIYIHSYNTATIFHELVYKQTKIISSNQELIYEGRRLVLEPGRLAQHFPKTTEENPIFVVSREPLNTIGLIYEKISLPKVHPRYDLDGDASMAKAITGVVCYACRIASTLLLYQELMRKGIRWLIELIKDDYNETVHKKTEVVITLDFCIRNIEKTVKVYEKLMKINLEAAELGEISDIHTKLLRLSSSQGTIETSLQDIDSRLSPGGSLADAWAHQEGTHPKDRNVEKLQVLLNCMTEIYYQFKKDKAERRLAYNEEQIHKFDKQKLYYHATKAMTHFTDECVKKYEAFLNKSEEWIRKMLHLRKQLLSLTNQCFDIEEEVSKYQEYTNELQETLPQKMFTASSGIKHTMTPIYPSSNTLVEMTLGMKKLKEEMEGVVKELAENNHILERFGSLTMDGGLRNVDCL
In short: as §1

[4] = molecular target: T4, ZAP70 (Homo sapiens, UniProt P43403)
T4 sequence (P43403 1-619): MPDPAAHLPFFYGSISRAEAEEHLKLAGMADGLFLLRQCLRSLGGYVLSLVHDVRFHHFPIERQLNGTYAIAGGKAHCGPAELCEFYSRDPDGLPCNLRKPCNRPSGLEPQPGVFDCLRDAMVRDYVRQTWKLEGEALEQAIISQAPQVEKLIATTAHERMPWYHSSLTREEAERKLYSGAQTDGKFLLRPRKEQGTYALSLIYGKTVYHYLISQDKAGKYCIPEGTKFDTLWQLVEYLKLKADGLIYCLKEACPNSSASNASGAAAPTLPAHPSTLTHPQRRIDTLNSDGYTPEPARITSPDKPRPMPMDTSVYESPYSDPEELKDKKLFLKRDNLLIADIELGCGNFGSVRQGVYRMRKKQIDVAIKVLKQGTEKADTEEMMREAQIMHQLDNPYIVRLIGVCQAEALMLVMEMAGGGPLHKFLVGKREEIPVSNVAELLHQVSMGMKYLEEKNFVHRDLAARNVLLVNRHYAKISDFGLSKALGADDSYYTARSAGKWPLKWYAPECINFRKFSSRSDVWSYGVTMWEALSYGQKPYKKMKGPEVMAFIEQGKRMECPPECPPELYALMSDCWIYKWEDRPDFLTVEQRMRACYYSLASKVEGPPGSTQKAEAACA
In short: as §1

[5] = molecular target: TYK2(JH2domain-pseudokinase) (Homo sapiens, UniProt P29597)
In short: as §1

[6] = molecular target: CAMKK1 (Homo sapiens, UniProt Q8N5S9)
In short: as §1

Sequence of CAMKK1 (Q8N5S9 whole entry): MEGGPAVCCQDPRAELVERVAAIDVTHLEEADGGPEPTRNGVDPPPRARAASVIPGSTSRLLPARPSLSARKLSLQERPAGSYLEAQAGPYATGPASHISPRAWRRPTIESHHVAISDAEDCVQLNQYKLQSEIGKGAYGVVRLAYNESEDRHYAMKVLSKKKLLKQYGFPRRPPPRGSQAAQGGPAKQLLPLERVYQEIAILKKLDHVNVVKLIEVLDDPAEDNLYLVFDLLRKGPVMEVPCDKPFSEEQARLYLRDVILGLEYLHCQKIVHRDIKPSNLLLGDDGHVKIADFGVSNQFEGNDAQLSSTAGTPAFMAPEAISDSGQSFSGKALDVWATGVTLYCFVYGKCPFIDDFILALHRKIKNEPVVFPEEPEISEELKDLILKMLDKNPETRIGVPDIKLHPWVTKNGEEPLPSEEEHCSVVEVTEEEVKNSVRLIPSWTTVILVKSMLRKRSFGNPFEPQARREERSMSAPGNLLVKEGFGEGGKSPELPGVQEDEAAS
Sequence of TYK2(JH2domain-pseudokinase) (P29597 589-875 limits assumed, species assumed): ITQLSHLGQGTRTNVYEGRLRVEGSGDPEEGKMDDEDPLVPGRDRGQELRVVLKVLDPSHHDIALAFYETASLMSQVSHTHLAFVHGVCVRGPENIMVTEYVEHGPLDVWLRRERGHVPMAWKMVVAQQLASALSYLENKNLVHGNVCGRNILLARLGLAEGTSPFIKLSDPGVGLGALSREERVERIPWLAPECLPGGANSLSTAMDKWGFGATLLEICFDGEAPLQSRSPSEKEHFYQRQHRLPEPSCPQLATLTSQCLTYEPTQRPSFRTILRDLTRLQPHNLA

Row | SMILES | remaining activity at 1 µM [1] [%] | remaining activity at 1 µM [2] [%] | remaining activity at 1 µM [3] [%] | remaining activity at 1 µM [4] [%] | remaining activity at 1 µM [5] [%] | remaining activity at 1 µM [6] [%] | remaining activity at 10 µM ([1]; 10 μM) [%] | remaining activity at 10 µM ([2]; 10 μM) [%] | remaining activity at 10 µM ([3]; 10 μM) [%] | remaining activity at 10 µM ([4]; 10 μM) [%] | remaining activity at 10 µM ([5]; 10 μM) [%] | remaining activity at 10 µM ([6]; 10 μM) [%]
1 | Nc1nc2c(-c3ccccn3)nccc2[nH]1 [drawing 35, 4-(pyrid-2-yl)-1H-imidazo[4,5-c]pyridin-2-amine] | 51 | 56 | 50 | 54 | 41 | 19 |  |  |  |  |  | 
2 | Nc1nc2c(-c3cc(Br)c(Br)[nH]3)nccc2[nH]1 [Ageladine A, ageladine A, reference compound] | 82 | 78 | 84 | 81 | 23 | 92 | 81 | 86 | 78 | 65 | 2 | 100
3 | Nc1nc2c(-c3cnc4ccccc4c3)nccc2[nH]1 [drawing 36, 4-(quinolin-3-yl)-1H-imidazo[4,5-c]pyridin-2-amine] | 87 | 100 | 79 | 94 | 25 | 100 |  |  |  |  |  | 
